The text below walks through data of patent publication US20090099216A1, “NOVEL ADENINE COMPOUND” (priority 2005, published 2009).

The structures appear in SMILES notation.

The target of the test is T1, Human TLR7 (Homo sapiens, UniProt Q9NYK1).
T1 construct: expressed in transfected cells; host or cells: HEK293 (hTLR7/seap-293), stably carrying the TLR7 plasmid and the NF-kB-SEAP reporter plasmid
T1 sequence (Q9NYK1 27-1049): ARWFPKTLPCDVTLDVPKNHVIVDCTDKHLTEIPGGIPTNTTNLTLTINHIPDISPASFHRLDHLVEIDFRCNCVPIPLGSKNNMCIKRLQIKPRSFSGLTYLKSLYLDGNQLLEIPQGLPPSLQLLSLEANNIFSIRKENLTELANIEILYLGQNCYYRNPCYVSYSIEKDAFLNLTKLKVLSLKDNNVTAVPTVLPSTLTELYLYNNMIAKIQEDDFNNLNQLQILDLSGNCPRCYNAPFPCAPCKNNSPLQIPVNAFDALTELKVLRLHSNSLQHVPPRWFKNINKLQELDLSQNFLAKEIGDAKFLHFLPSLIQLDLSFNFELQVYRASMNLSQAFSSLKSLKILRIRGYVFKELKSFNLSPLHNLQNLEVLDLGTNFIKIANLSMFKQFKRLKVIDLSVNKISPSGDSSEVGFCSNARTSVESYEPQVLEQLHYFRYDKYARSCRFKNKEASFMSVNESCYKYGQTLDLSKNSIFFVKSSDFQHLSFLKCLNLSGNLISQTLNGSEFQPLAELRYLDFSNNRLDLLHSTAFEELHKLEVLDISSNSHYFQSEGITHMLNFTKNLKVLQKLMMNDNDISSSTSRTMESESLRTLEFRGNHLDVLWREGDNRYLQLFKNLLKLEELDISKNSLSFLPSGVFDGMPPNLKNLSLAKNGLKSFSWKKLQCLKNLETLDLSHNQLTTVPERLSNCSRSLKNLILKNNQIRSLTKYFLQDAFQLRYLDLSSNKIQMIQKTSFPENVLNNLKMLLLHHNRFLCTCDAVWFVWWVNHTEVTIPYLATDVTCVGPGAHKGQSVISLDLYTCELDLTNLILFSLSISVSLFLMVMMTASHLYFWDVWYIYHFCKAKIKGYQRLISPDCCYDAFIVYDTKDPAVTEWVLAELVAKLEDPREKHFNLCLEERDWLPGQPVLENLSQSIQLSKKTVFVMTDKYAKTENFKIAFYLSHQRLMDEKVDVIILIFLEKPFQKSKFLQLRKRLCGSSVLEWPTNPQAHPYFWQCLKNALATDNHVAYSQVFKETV
Kind of test: Human TLR7 reporter assay (NF-kB-SEAP) in HEK293 cells. The following applies: hTLR7/seap-293 HEK293 cells, 20 hours incubation, absorbance 405 nm, read-out: human TLR7 binding activity (EC50). The test is classed as cell-based. Here is the method: Human TLR7 Reporter Assay
Human TLR7 or rat TLR7 plasmid and reporter plasmid (NF-kB-SEAP) stably-induced HEK293 cells were suspended in DMEM media (10% FBS, 1% NEAA, 10 ug/mL blastocidin S HCl, 100 ug/mL Zeocin), and the suspension was seeded in 90 μl/well on 96 well plate (hTLR^7/seap-293: 20000 cells/well, rTLR7/seap-293: 25000 cells/well).
To the cells seeded on 96 well plate was added in 10 μl/well a test compound wherein DMSO stock solution (2 μl) was hundredfold diluted with medium (200 μl) (final concentration; 1 nM-10 μM, common ratio 3). The mixture was stirred tapping in the side of the plate, and then incubated for 20 hours in CO2 incubator. To the cells stimulated by a test compound was added a substrate for reporter assay (substrate for SEAP, pNPP) by 50 μl/well. 10 minutes after the addition of substrate, a quenching solution (4N NaOH) was added by 50 μl/well, and the enzymatic reaction was quenched. Top seal A was attached on the plate, and absorbance was measured by microplate reader (405 nm).
(In general: A reporter such as luciferase makes a cellular process visible.)

In general, EC50 refers to the concentration that produces a half-maximal response. As for `CCCCOc1nc(N)c2[nH]c(=O)n(CCN[C@@H](CCCCN)C(=O)OC)c2n1` [Example 7, Methyl N^2-[2-(6-amino-2-butoxy-8-oxo-7,8-dihydro-9H-purin-9-yl)ethyl]-L-lysinate], the 50% effective concentration (EC50) came to 1.71 µM.
Consider `CCCCOc1nc(N)c2[nH]c(=O)n(CCN[C@@H](CC(=O)OC)C(=O)OC)c2n1` [Example 6, Dimethyl N-[2-(6-amino-2-butoxy-8-oxo-7,8-dihydro-9H-purin-9-yl)ethyl]-L-aspartate], for which the 50% effective concentration (EC50) was determined as 0.881 µM.
In the case of `CCCCOc1nc(N)c2[nH]c(=O)n(CCNCC(=O)OC)c2n1` [Example 1, Methyl N-[2-(6-amino-2-butoxy-7,8-dihydro-8-oxo-9H-purin-9-yl)-ethyl]glycinate], the EC50 was found to be 0.29 µM.
